Results: PubChem BioAssay (NCI)
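1) Cells in 96-well plates. 2) Compound, 48 h, 5 concentrations. 3) Linear interpolation between surrounding doses. 4) Unreached endpoint = highest concentration. GI50: concentration for 50% inhibition of growth. TGI is the concentration that stops growth completely.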

What was measured:
Experiment in all cases: NCI tumour cell line growth inhibition, 48 h
DU-145 prostate = system: DU-145 prostate
MDA-N = system: MDA-N
KM20L2 colon = system: KM20L2 colon
M19-MEL melanoma = system: M19-MEL melanoma
P388 leukemia = system: P388 leukemia
P388/ADR leukemia = system: P388/ADR leukemia
SN12K1 renal = system: SN12K1 renal
RXF-631 renal = system: RXF-631 renal

## OC(CC1CCCCN1)c1ccc2c(c1)oc1ccccc12 (stereo not drawn)
DU-145 prostate
  TGI: > 100 µM
MDA-N
  TGI: > 100 µM

## CN(C)CCNC(=O)c1cccc2c(=O)c3ccccc3oc12
KM20L2 colon
  TGI: > 100 µM
M19-MEL melanoma
  TGI: 56.7 µM
P388 leukemia
  TGI: 52.2 µM
P388/ADR leukemia
  TGI: 73.2 µM
SN12K1 renal
  TGI: 47.5 µM

## Cc1n(CC(C)C)c2c([n+]1C)C(=O)c1ccccc1C2=O
DU-145 prostate
  TGI: 0.41 µM
KM20L2 colon
  TGI: 1.6 µM
M19-MEL melanoma
  TGI: 0.216 µM
MDA-N
  TGI: 0.314 µM

## CCOP(=Nc1ccc(N(C)C)cc1)(OCC)OCC
DU-145 prostate
  TGI: > 100 µM
MDA-N
  TGI: > 100 µM

## CCC1C[N+]23CCc4c([nH]c5ccccc45)C2CC1CC3 (stereo not drawn)
KM20L2 colon
  TGI: > 100 µM
M19-MEL melanoma
  TGI: > 100 µM

## CN(C)/C=C/C(=CC=[N+](C)C)/C=C/N(C)C
RXF-631 renal
  TGI: > 100 µM

## CC(=O)C(C(c1ccccc1)N1CCOCC1)N1CCOCC1 (stereo not drawn)
DU-145 prostate
  TGI: > 100 µM
MDA-N
  TGI: > 100 µM

## Cc1ccc(S(=O)(=O)Nc2cccc3c(=O)[nH]cnc23)cc1
KM20L2 colon
  TGI: > 100 µM
M19-MEL melanoma
  TGI: > 100 µM

## CC1=C2C(O)C(C(C)C(=O)N(C)C)CCC2(C)C=CC1=O (stereo not drawn)
KM20L2 colon
  TGI: > 100 µM
M19-MEL melanoma
  TGI: > 100 µM
P388 leukemia
  TGI: > 100 µM
P388/ADR leukemia
  TGI: > 100 µM
SN12K1 renal
  TGI: > 100 µM

## O=C1C=C(C2OC(CO)C(O)C2O)C(=O)N1 (stereo not drawn)
KM20L2 colon
  TGI: > 100 µM
M19-MEL melanoma
  TGI: > 100 µM
P388 leukemia
  TGI: 60.9 µM
P388/ADR leukemia
  TGI: 68.5 µM
SN12K1 renal
  TGI: > 100 µM

## COc1cc2c(cc1O)c(O)cc1c3cc(OC)c(OC)cc3c[n+](C)c21
DU-145 prostate
  TGI: > 43.7 µM
MDA-N
  TGI: 35.7 µM

## COC1OC(CS(=O)(=O)O)C(O)C(O)C1O (stereo not drawn)
DU-145 prostate
  TGI: > 100 µM
MDA-N
  TGI: > 100 µM

## O=C(c1ccccc1)c1ccc2n[se]nc2c1
KM20L2 colon
  TGI: > 100 µM
RXF-631 renal
  TGI: > 100 µM

## Cc1ccc2c(ccc(/C=C/c3ccc(O)c4ncccc34)[n+]2C)c1
DU-145 prostate
  TGI: > 57.3 µM
KM20L2 colon
  TGI: 20.1 µM
M19-MEL melanoma
  TGI: 22.6 µM
MDA-N
  TGI: > 44.9 µM

## CCOC(=O)Nc1cc2c(c(N)n1)N=C(c1ccc(OC)cc1)CN2
DU-145 prostate
  TGI: 33.3 µM
MDA-N
  TGI: 0.0014 µM

## CCCC(C)c1ccc(OCCCCCCN2CCNCC2)cc1 (stereo not drawn)
DU-145 prostate
  GI50: 2.25 µM
  TGI: 5.43 µM

## N#C[S-].[La+3].c1cnc2c(c1)ccc1cccnc12.c1cnc2c(c1)ccc1cccnc12.c1cnc2c(c1)ccc1cccnc12
KM20L2 colon
  GI50: 0.986 µM
  TGI: 16.4 µM
M19-MEL melanoma
  GI50: 0.688 µM
  TGI: 3.69 µM
